Results as given in patent US8642801B2 (BHI Limited Partnership, priority 2003, dated 2014).

Key:
IAPP [1] = target: T1, IAPP (Homo sapiens, UniProt P10997); test: MS (electrospray mass spectrometry) binding assay for IAPP; settings: Table 3C; 20 μM Aβ peptide, 100 μM compound (so in the source)
T1 construct: which is a 37 amino acid peptide, derived from a larger precursor peptide, called pro-IAPP
T1 sequence (P10997 34-70 limits assumed): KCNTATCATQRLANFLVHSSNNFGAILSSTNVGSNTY
Text: (§1) The ability of a therapeutic compound of the invention to inhibit an interaction between an amyloidogenic protein and a glycoprotein or proteoglycan constituent of a basement membrane can be assessed by an in vitro binding assay, such as that described in U.S. Pat. No. 5,164,295, the contents of which are hereby incorporated by reference. Alternatively, the ability of a compound to bind to an amyloidogenic protein or to inhibit the binding of a basement membrane constituent (e.g., HSPG) to an amyloidogenic protein (e.g., Aβ) can be measured using a mass spectrometry assay where soluble protein, e.g., Aβ, IAPP, β2M is incubated with the compound. A compound which binds to, e.g., Aβ, will induce a change in the mass spectrum of the protein. Exemplary protocols for a mass spectrometry assay employing Aβ and IAPP can be found in the Examples, the results of which are provided in Table 3. The protocol can readily be modified to adjust the sensitivity of the data, e.g., by adjusting the amount of protein and/or compound employed. Thus, e.g., binding might be detected for test compounds noted as not having detectable binding employing less sensitive test protocols.
(§2) The test compounds were synthesized and screened by mass spectrometry (“MS”) assays, except for selected compounds which were purchased from a commercial source. The MS assay gives data on the ability of compounds to bind to proteins, in this example, to β-amyloid and IAPP.
(§3) In the MS assay for Aβ40, samples were prepared as aqueous solutions (adding 20% ethanol if necessary to solubilize in water), 200 μM of a test compound and 20 μM of solubilized Aβ40, or 400 μM of a test compound and 40 μM of solubilized Aβ40. The pH value of each sample was adjusted to 7.4 (±0.2) by addition of 0.1% aqueous sodium hydroxide. The solutions were then analyzed by electrospray ionization mass spectrometry using a Waters ZQ 4000 mass spectrometer. Samples were introduced by direct infusion at a flow-rate of 25 μL/min within 2 hr. after sample preparation. The source temperature was kept at 70° C. and the cone voltage was 20 V for all the analysis. Data were processed using Masslynx 3.5 software. The MS assay gives data on the ability of compounds to bind to soluble Aβ, whereas the ThT, EM and CD assays give data on inhibition of fibrillogenesis. In Table 3, a blank box means that a value was not determined for that compound in that assay.
The key below describes the codes used in Table 3A to quantify the binding based on the intensity of the absorption.

Aβ1-40 = target: T2, Aβ1-40 (Homo sapiens, UniProt P05067); test: MS (electrospray mass spectrometry) binding assay for Aβ40
T2 construct: most is normally secreted as a 40 (“Aβ1-40”) or 42 (“Aβ1-42”) amino acid peptide
T2 sequence (P05067 672-711 limits assumed): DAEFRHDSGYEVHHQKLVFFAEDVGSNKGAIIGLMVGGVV
Text: as §1, §2
as §3, with “The” for “In the MS assay for Aβ40, samples were prepared as aqueous solutions (adding 20% ethanol if necessary to solubilize in water), 200 μM of a test compound and 20 μM of solubilized Aβ40, or 400 μM of a test compound and 40 μM of solubilized Aβ40. The”

IAPP [2] = target: T1, IAPP; test: MS (electrospray mass spectrometry) binding assay for IAPP
[3] = Table 3C, 20 μM Aβ peptide, 100 μM compound
[4] = Table 3D, 40 μM Aβ peptide, 400 μM compound
[5] = Table 3D, 40 μM Aβ peptide, 400 μM compound (so in the source)
[6] = Table 3B, 30 μM Aβ peptide, 150 μM compound

SMILES	MS binding IAPP (IAPP [1])	further results
O=S(=O)(O)CC(O)CNC1CC2CCC1C2 (stereo not drawn) [KI, 3-(bicyclo[2.2.1]hept-2-ylamino)-2-hydroxy-1-propanesulfonic acid]	+ (20-39% binding=(+))	–
CCCCCCCCNCCCCS(=O)(=O)O [LJ, 4-(octylamino)-1-butanesulfonic acid]	+++ (75-100% binding=(+++))	–
CN(C)CCS(=O)(=O)O [KQ]	+ (20-39% binding=(+))	–
CC(C)(C)NCCCCS(=O)(=O)O [LD, 4-(tert-butylamino)-1-butanesulfonic acid]	++ (40-74% binding=(++))	–
CCNCCCCS(=O)(=O)O [LE, 4-(ethylamino)-1-butanesulfonic acid]	++ (40-74% binding=(++))	–
C[C@H]([C@@H](O)c1ccccc1)N(C)CCCS(=O)(=O)O [IZ]	+++ (75-100% binding=(+++))	MS binding Aβ1-40 (Aβ1-40; [3]): − (<20%=(−))
O=S(=O)(O)CCCCNC12CC3CC(CC(C3)C1)C2 [LI, 4-(adamantyl)amino-1-butanesulfonic acid]	+++ (75-100% binding=(+++))	–
C[C@@H]([C@H](O)c1ccccc1)N(C)CCCS(=O)(=O)O [JE]	++ (40-74% binding=(++))	MS binding Aβ1-40 (Aβ1-40; [3]): − (<20%=(−))
CC(C)(C)OC(=O)NCCCS(=O)(=O)O [IA]	–	MS binding Aβ1-40 (Aβ1-40; [4]): +++ (75-100% binding=(+++)); MS binding IAPP (IAPP [2]; [5]): + (20-39% binding=(+))
O=S(=O)(O)CCCNc1ccccc1O [HU]	–	MS binding Aβ1-40 (Aβ1-40; [4]): +++ (75-100% binding=(+++)); MS binding IAPP (IAPP [2]; [5]): + (20-39% binding=(+))
COc1ccccc1CNCCCS(=O)(=O)O [IW]	+++ (75-100% binding=(+++))	MS binding Aβ1-40 (Aβ1-40; [3]): ++ (40-74% binding=(++))
O=S(=O)([O-])CCCC[N+]12CCC(CC1)CC2 [LF]	+ (20-39% binding=(+))	–
CCCCCCCCNCCC(C)S(=O)(=O)O (stereo not drawn) [JG, 4-(octylamino)-2-butanesulfonic acid]	+++ (75-100% binding=(+++))	–
O=S(=O)([O-])CCC[N+]12CCC(CC1)CC2 [JM]	+ (20-39% binding=(+))	MS binding Aβ1-40 (Aβ1-40; [3]): − (<20%=(−))
CCCC(CO)NCC(O)CS(=O)(=O)O (stereo not drawn)	++ (40-74% binding=(++))	–
C[C@@H](NCCCS(=O)(=O)O)c1ccccc1 [IY]	–	MS binding Aβ1-40 (Aβ1-40; [6]): ++ (40-59% binding=(++)); MS binding IAPP (IAPP [2]; Table 3B, 30 μM Aβ peptide, 150 μM compound (so in the source)): +++ (60-100% binding=(+++))
CCCC(CO)NCCC(C)S(=O)(=O)O (racemic) [JL, 4-[(dl)-1-hydroxy-2-pentyl]amino-2-butane sulfonic acid]	++ (40-74% binding=(++))	MS binding Aβ1-40 (Aβ1-40; [3]): ++ (40-74% binding=(++))
CCCCCCNC(=O)NCCCS(=O)(=O)[O-].[Na+] [AI]	–	MS binding Aβ1-40 (Aβ1-40; [6]): +++ (60-100% binding=(+++))

The next lines start with results.

MS binding IAPP (IAPP [1])	SMILES	further results
++ (40-74% binding=(++))	CCNCC(O)CS(=O)(=O)O (stereo not drawn) [JU, 3-(ethylamino)-2-hydroxy-1-propanesulfonic acid]	–
+ (20-39% binding=(+))	CC(CCN1CCCCC1)S(=O)(=O)O (stereo not drawn) [JS, 4-piperidin-1-yl-2-butanesulfonic acid]	–
++ (40-74% binding=(++))	O=S(=O)(O)CC(O)CN1CCCCC1 (stereo not drawn) [KA, 2-hydroxy-3-piperidin-1-ylpropane-1-sulfonic acid]	–
+++ (75-100% binding=(+++))	O=S(=O)(O)CCCCCNC1CC2CCC1C2 (stereo not drawn) [LQ]	–
++ (40-74% binding=(++))	CCCC(CO)NCCCCS(=O)(=O)O (racemic) [LL, 4-[(dl)-1-hydroxy-2-pentyl]amino-1-butanesulfonic acid]	–
++ (40-74% binding=(++))	CCOc1ccccc1CNCCCS(=O)(=O)O [JD]	MS binding Aβ1-40 (Aβ1-40; [3]): + (20-39% binding=(+))
